Results reported in US12528814B2, “Bifunctional degraders of interleukin-1 receptor-associated kinases and therapeutic use thereof” (NURIX THERAPEUTICS, INC., priority 2020, dated 2026).

Legend:
IRAK4 [1] = molecular target: T1, IRAK4 (Homo sapiens (Human), UniProt Q9NWZ3); test: IRAK4 Degradation HiBiT Assay; conditions: multiple runs, HiBiT-tagged Jurkat cells, 4 hrs; for Dmax: Jurkat, read-out: Cellular IRAK4 HiBiT: Dmax, Table 5; for DC50: read-out: Cellular IRAK4 HiBiT: DC50, Table 5
Target sequence in this assay (Q9NWZ3 whole entry): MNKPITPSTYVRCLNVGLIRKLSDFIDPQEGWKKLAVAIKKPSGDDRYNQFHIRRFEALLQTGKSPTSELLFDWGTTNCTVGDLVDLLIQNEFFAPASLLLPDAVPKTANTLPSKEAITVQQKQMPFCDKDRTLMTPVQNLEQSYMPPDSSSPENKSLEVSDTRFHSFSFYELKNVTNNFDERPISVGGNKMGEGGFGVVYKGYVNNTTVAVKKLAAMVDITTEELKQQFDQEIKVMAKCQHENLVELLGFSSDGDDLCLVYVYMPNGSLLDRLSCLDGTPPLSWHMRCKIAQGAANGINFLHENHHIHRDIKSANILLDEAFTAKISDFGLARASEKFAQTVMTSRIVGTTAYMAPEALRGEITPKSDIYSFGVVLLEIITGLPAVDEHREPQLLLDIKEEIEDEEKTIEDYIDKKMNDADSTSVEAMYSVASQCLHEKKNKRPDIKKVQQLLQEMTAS
Method: Compound dilution series (11-point, 3.16-fold dilutions in DMSO, columns 1-11 and 12-22) at 500× the final required concentrations were prepared in Labcyte LDV 384-well plates (cat. no. LP-0200) using a Labcyte Echo 550 Liquid Handler. The 500× solutions ranged from 5 mM to 0.5 μM (final assay concentration range 10 μM to 0.1 nM). Using the Echo, the 500× solutions were stamped into white, 384-well assay plates (Corning, cat. no. 3570) at 60 nL/well. […] C-terminal HiBiT-tagged Jurkat cells (polyclonal cell line or clone 8D5) were plated at 1×10^6 cells/mL, 30 μL/well (3×10^4 cells/well) in complete RPMI (10% FBS, 1% L-glutamine). Cells were incubated for 4 hrs at 32° C./6% CO2.
Following incubation, 30 uL of complete Nano-Glo HiBiT Lytic Detection Reagent (Nano-Glo HiBiT Lytic Buffer with 1:50 Nano-Glo HiBiT Lytic Substrate and 1:100 LgBiT Protein; Promega cat. no. N3040) was added. Cells were further incubated for 10 min at room temperature (RT). Luminescence units (LU) were read on an EnVision plate reader (Perkin Elmer, 0.1 sec per well). Percent IRAK4 remaining per sample was calculated as follows:
Using Graphpad Prism, % IRAK4 remaining values were plotted as a function of compound concentration.

IRAK4 [2] = molecular target: T1, IRAK4; test: IRAK4 Biochemical HTRF Kinase Assay; conditions: Table 5; multiple runs; read-out: IRAK4 HTRF biochemical: IC50
How it was run: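 HTRF KinEASE STK S1 format measuring IRAK4 phosphorylation of biotinylated peptide; reaction solution of 5 μM STK-S1, 10 mM ATP, 10 mM MgCl2 added (stock, to 10 μl final), 90 min at ambient temperature, detection 60 min. IC50 from sixteen-point duplicate curves by non-linear regression.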
Target sequence in this assay (Q9NWZ3 whole entry, species assumed): as the sequence (Q9NWZ3 whole entry) above

Row | Compound | Dmax (IRAK4 [1]) [%] | DC50 (IRAK4 [1]) [nM] | IC50 (IRAK4 [2]) [nM]
1 | CNc1cc(-c2ccc3cc(C#N)cnn23)ncc1-c1nnc(N2CCN(C(=O)N3CCN(Cc4ccc5c(c4)C(=O)N(C4CCC(=O)NC4=O)C5=O)CC3)CC2)s1 (stereo not drawn) [Example 156, 7-(5-(5-(4-(4-((2-(2,6-dioxopiperidin-3-yl)-1,3-dioxoisoindolin-5-yl)methyl)piperazine-1-carbonyl)piperazin-1-yl)-1,3,4-thiadiazol-2-yl)-4-(methylamino)pyridin-2-yl)pyrrolo[1,2-b]pyridazine-3-carbonitrile] | 109 | 15.5 | 0.8
2 | CNc1cc(-c2ccc3cc(C#N)cnn23)ncc1-c1nnc(N2CCC(C(=O)N3CCN(Cc4ccc5c(c4)C(=O)N(C4CCC(=O)NC4=O)C5=O)CC3)CC2)s1 (stereo not drawn) [Example 157, 7-(5-(5-(4-(4-((2-(2,6-dioxopiperidin-3-yl)-1,3-dioxoisoindolin-5-yl)methyl)piperazine-1-carbonyl)piperidin-1-yl)-1,3,4-thiadiazol-2-yl)-4-(methylamino)pyridin-2-yl)pyrrolo[1,2-b]pyridazine-3-carbonitrile] | 104 | 17.6 | 1
3 | CNc1cc(-c2ccc3cc(C#N)cnn23)ncc1-c1nnc(N2CCC(NC(=O)CCC(=O)N[C@H](C(=O)N3C[C@H](O)C[C@H]3C(=O)N[C@@H](C)c3ccc(-c4scnc4C)cc3)C(C)(C)C)CC2)s1 [Example 158, N1-(1-(5-(6-(3-cyanopyrrolo[1,2-b]pyridazin-7-yl)-4-(methylamino)pyridin-3-yl)-1,3,4-thiadiazol-2-yl)piperidin-4-yl)-N4—((S)-1-((2S,4R)-4-hydroxy-2-(((S)-1-(4-(4-methylthiazol-5-yl)phenyl)ethyl)carbamoyl)pyrrolidin-1-yl)-3,3-dimethyl-1-oxobutan-2-yl)succinamide] | 74 | 1210 | 1.6

Other lines, results leading:

Row | Dmax (IRAK4 [1]) [%] | DC50 (IRAK4 [1]) [nM] | IC50 (IRAK4 [2]) [nM] | Compound
4 | 116 | 111 | 2.1 | CNc1cc(-c2ccc3cc(C#N)cnn23)ncc1-c1nnc([C@H]2CC[C@H](NC(=O)COc3cc(-c4scnc4C)ccc3CNC(=O)[C@@H]3C[C@@H](O)CN3C(=O)[C@@H](NC(=O)C3(F)CC3)C(C)(C)C)CC2)s1 [Example 159, (2S,4R)—N-(2-(2-(((1r,4S)-4-(5-(6-(3-cyanopyrrolo[1,2-b]pyridazin-7-yl)-4-(methylamino)pyridin-3-yl)-1,3,4-thiadiazol-2-yl)cyclohexyl)amino)-2-oxoethoxy)-4-(4-methylthiazol-5-yl)benzyl)-1-((S)-2-(1-fluorocyclopropane-1-carboxamido)-3,3-dimethylbutanoyl)-4-hydroxypyrrolidine-2-carboxamide]
5 | 97 | 85.8 | 1.1 | CNc1cc(-c2ccc3cc(C#N)cnn23)ncc1-c1nnc(N2CCN(C(=O)C[C@H](NC(=O)[C@@H]3C[C@@H](O)CN3C(=O)[C@@H](NC(=O)C3(F)CC3)C(C)(C)C)c3ccc(-c4scnc4C)cc3)CC2)s1 [Example 160, (2S,4R)—N—((S)-3-(4-(5-(6-(3-cyanopyrrolo[1,2-b]pyridazin-7-yl)-4-(methylamino)pyridin-3-yl)-1,3,4-thiadiazol-2-yl)piperazin-1-yl)-1-(4-(4-methylthiazol-5-yl)phenyl)-3-oxopropyl)-1-((S)-2-(1-fluorocyclopropane-1-carboxamido)-3,3-dimethylbutanoyl)-4-hydroxypyrrolidine-2-carboxamide]
6 | 56 | 24.6 | 1.4 | CNc1cc(-c2ccc3cc(C#N)cnn23)ncc1-c1nnc(N2CCN(CC3CCN(c4ccc(C(=O)NC5CCC(=O)NC5=O)nc4)CC3)CC2)s1 (stereo not drawn) [Example 161, 5-(4-((4-(5-(6-(3-cyanopyrrolo[1,2-b]pyridazin-7-yl)-4-(methylamino)pyridin-3-yl)-1,3,4-thiadiazol-2-yl)piperazin-1-yl)methyl)piperidin-1-yl)-N-(2,6-dioxopiperidin-3-yl)picolinamide]
